From PubChem BioAssay (NCI)
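Compound exposure: 48 hours, 5 concentrations, 96-well plates. TGI is the concentration that stops growth completely.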

How the values were obtained:
Assay in all cases: NCI tumour cell line growth inhibition, 48 h
K-562 leukemia = tested on: K-562 leukemia
HT29 colon = tested on: HT29 colon
RXF 393 renal = tested on: RXF 393 renal
KM12 colon = tested on: KM12 colon
HS 578T breast = tested on: HS 578T breast
SN12C renal = tested on: SN12C renal
MDA-N = tested on: MDA-N
NCI/ADR-RES ovarian = tested on: NCI/ADR-RES ovarian
NCI-H226 lung = tested on: NCI-H226 lung
NCI-H23 lung = tested on: NCI-H23 lung
HOP-92 NSCLC = tested on: HOP-92 NSCLC
SK-MEL-2 melanoma = tested on: SK-MEL-2 melanoma
786-0 renal = tested on: 786-0 renal
UACC-257 melanoma = tested on: UACC-257 melanoma
CAKI-1 renal = tested on: CAKI-1 renal
MOLT-4 leukemia = tested on: MOLT-4 leukemia
LOX IMVI melanoma = tested on: LOX IMVI melanoma
MALME-3M melanoma = tested on: MALME-3M melanoma
OVCAR-3 ovarian = tested on: OVCAR-3 ovarian
HCC-2998 colon = tested on: HCC-2998 colon
MCF7 breast = tested on: MCF7 breast
OVCAR-8 ovarian = tested on: OVCAR-8 ovarian
SK-OV-3 ovarian = tested on: SK-OV-3 ovarian
SF-295 CNS = tested on: SF-295 CNS
U251 CNS = tested on: U251 CNS
A549 NSCLC = tested on: A549 NSCLC
PC-3 prostate = tested on: PC-3 prostate
OVCAR-4 ovarian = tested on: OVCAR-4 ovarian
NCI-H460 lung = tested on: NCI-H460 lung
MDA-MB-231 breast = tested on: MDA-MB-231 breast
SW-620 colon = tested on: SW-620 colon
OVCAR-5 ovarian = tested on: OVCAR-5 ovarian
SF-539 CNS = tested on: SF-539 CNS
COLO 205 colon = tested on: COLO 205 colon
M14 melanoma = tested on: M14 melanoma
UACC-62 melanoma = tested on: UACC-62 melanoma
UO-31 renal = tested on: UO-31 renal
HCT-116 colon = tested on: HCT-116 colon
EKVX NSCLC = tested on: EKVX NSCLC
MDA-MB-435 = tested on: MDA-MB-435
A498 renal = tested on: A498 renal
SF-268 CNS = tested on: SF-268 CNS
SK-MEL-28 melanoma = tested on: SK-MEL-28 melanoma
HCT-15 colon = tested on: HCT-15 colon
ACHN renal = tested on: ACHN renal
SNB-75 CNS = tested on: SNB-75 CNS
TK-10 renal = tested on: TK-10 renal
DU-145 prostate = tested on: DU-145 prostate
CCRF-CEM leukemia = tested on: CCRF-CEM leukemia
BT-549 breast = tested on: BT-549 breast
IGROV1 ovarian = tested on: IGROV1 ovarian
T-47D breast = tested on: T-47D breast
HL-60(TB) leukemia = tested on: HL-60(TB) leukemia

C[C@]12CC[C@@H]3c4cc(Br)c(O)c(Br)c4CC[C@H]3[C@@H]1CCC2=O
TGI (K-562 leukemia): > 100 µM | TGI (HT29 colon): > 100 µM | TGI (RXF 393 renal): 36.7 µM | TGI (KM12 colon): > 100 µM | TGI (HS 578T breast): 52.2 µM | TGI (SN12C renal): 65.1 µM | TGI (MDA-N): > 100 µM | TGI (NCI/ADR-RES ovarian): 36.9 µM | TGI (NCI-H226 lung): 26 µM | TGI (NCI-H23 lung): 26.7 µM | TGI (HOP-92 NSCLC): > 100 µM | TGI (SK-MEL-2 melanoma): 38.3 µM | TGI (786-0 renal): 46.4 µM | TGI (UACC-257 melanoma): 56.1 µM | TGI (CAKI-1 renal): 38.9 µM | TGI (MOLT-4 leukemia): 80.6 µM | TGI (LOX IMVI melanoma): 71.9 µM | TGI (MALME-3M melanoma): > 100 µM | TGI (OVCAR-3 ovarian): 31.4 µM | TGI (HCC-2998 colon): 26.9 µM | TGI (MCF7 breast): 43.9 µM | TGI (OVCAR-8 ovarian): 39.5 µM | TGI (SK-OV-3 ovarian): 95.7 µM | TGI (SF-295 CNS): 38.1 µM | TGI (U251 CNS): 36.5 µM | TGI (A549 NSCLC): 36.2 µM | TGI (PC-3 prostate): > 100 µM | TGI (OVCAR-4 ovarian): 41.9 µM | TGI (NCI-H460 lung): 48.9 µM | TGI (MDA-MB-231 breast): > 100 µM | TGI (SW-620 colon): > 100 µM | TGI (OVCAR-5 ovarian): 65.2 µM | TGI (SF-539 CNS): 39.3 µM | TGI (COLO 205 colon): > 100 µM | TGI (M14 melanoma): > 100 µM | TGI (UACC-62 melanoma): > 100 µM | TGI (UO-31 renal): 24.2 µM | TGI (HCT-116 colon): > 100 µM | TGI (EKVX NSCLC): 74.8 µM | TGI (MDA-MB-435): > 100 µM | TGI (A498 renal): > 100 µM | TGI (SF-268 CNS): 54.3 µM | TGI (SK-MEL-28 melanoma): > 100 µM | TGI (HCT-15 colon): 26.1 µM | TGI (ACHN renal): 26.9 µM | TGI (SNB-75 CNS): 33.3 µM | TGI (TK-10 renal): 34.5 µM | TGI (DU-145 prostate): > 100 µM | TGI (CCRF-CEM leukemia): > 100 µM | TGI (BT-549 breast): 57.7 µM | TGI (IGROV1 ovarian): > 100 µM | TGI (T-47D breast): > 100 µM | TGI (HL-60(TB) leukemia): > 100 µM
